# Patent publication US6855312B1, “Hair care composition” (The Boots Company PLC, priority 1999, dated 2005)
# Test system: Linoleic acid (model skin and hair lipid)
# Experiment: UVA/B-induced lipid peroxidation of linoleic acid, lipid hydroperoxides by colorimetric test (In Vitro Tests)
# Type: biochemical
# Details: first series; compared to irradiated vehicle alone; broad spectrum UVA/B
# Procedure: Linoleic acid (model skin and hair lipid) was incubated in the presence of various antioxidants and antoxidant combinations and was exposed to broad spectrum UVA/B to induce oxidation of the lipid. Following extraction of the lipid into methanol, the amount of lipid hydroperoxides (free radical generated damage) formed were measured with a specific colorimetric biochemical test. The degree of inhibition afforded by the antioxidants was thus measured and compared to irradiated vehicle controls.
# The percentage inhibition of free radical mediated lipid peroxidation when compared to the vehicle alone are given below.
# In a second series of experiments using antoxidants collected in a later season gave the following results.
structure (smiles),measurement,value
O=C1O[C@H]([C@@H](O)CO)C([O-])=C1OP(=O)([O-])[O-].[Na+].[Na+].[Na+] [Sodium ascorbyl phosphate],% inhibition of free radical mediated lipid peroxidation (observed),21%
